Source: patent US20250171467A1, “FUSED PYRAZOLE AMIDE ANALOGS AS GLUCOSYLCERAMIDE SYNTHASE INHIBITORS” (Merck Sharp & Dohme LLC, priority 2022, published 2025)

Biological target: glucosylceramide synthase (GCS) (Homo sapiens (Human), UniProt Q16739)
Experiment: UDP-Glo glucosylceramide synthase biochemical assay
Settings: endogenous GCS in Golgi preparations from human A375 malignant melanoma skin cells; C6 ceramide and UDP-glucose substrates; 20 h incubation at room temperature; UDP detected by luminescence
Description: A UDP-Glo™ glucosylceramide synthase biochemical assay was utilized to evaluate the effect of test compounds on the activity of endogenous levels of GCS enzyme contained within Golgi preparations isolated from human A375 malignant melanoma skin cells. The UDP-Glo™ glucosylceramide synthase assay uses UDP-Glucose as a nucleotide-glycosyl donor and ceramide as substrate acceptor molecules. In the reaction, glucosylceramide synthase (GCS) transfers glucose from UDP-Glucose to ceramide. Glucosylceramide and UDP are released as products.
Using Promega's UDP-Glo™ Glycosyltransferase assay kit (Promega Corporation, Madison, WI, USA (Promega)), GCS activity was indirectly measured by detecting the amount of UDP produced. An aliquot of GCS enzyme (1.5 μg crude golgi preparation, total protein) and titrated test compound were aliquoted to each well and incubated for 30 minutes at room temperature. […] An equivalent volume of substrate mixture was then added to each well. Following a 20 h incubation at room temperature to allow for GCS turnover of substrate, an equal volume of UDP detection reagent (Promega) was added to each well and incubated for an additional 75 minutes at room temperature to simultaneously convert the accumulated UDP product into ATP and generate light in a luciferase reaction. The generated light was detected using a luminometer. […] luminescence values (RLUs) were normalized to mean “min” and “max” effects, as determined on each plate. […] Values for % Emax and EC50 were determined by best-fitting the normalized data to a curve in Activity Base along a four-parameter logistic nonlinear regression (4PL) model (based on the Levenberg-Marquardt algorithm and defined by the equation below): […]
where: n is 4PMin (bottom of the curve); m is 4PMax (top of the curve); i is IP (inflection point of curve); and p is slope. See Levenberg, K., “A Method for the Solution of Certain Problems in Least Squares”, Quart. Appl. Math. 2, (1944), pp 164-168 and Marquardt, D., “An Algorithm for Least Squares Estimation on Nonlinear Parameters”, SIAM J. Appl. Math. 11, (1963) pp 431-441.

Chain of glucosylceramide synthase (GCS) (Q16739 whole entry): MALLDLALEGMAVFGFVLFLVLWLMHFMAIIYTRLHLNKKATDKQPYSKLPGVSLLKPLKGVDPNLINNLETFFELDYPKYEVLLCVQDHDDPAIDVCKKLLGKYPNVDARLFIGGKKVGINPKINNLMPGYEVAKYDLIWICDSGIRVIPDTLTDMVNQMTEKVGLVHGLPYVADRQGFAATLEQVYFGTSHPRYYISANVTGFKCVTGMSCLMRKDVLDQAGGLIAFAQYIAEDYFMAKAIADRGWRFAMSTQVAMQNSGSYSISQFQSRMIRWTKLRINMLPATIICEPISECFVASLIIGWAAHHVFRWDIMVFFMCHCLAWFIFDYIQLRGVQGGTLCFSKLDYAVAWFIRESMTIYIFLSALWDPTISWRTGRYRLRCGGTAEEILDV

SMILES | EC50
COc1ccc(-n2nc(C(=O)N3CCCN(C)CC3)c3c2CCOC3)cc1C(F)(F)F [Compound 14, [1-[4-methoxy-3-(trifluoromethyl)phenyl]-1,4,6,7-tetrahydropyrano[4,3-c]pyrazol-3-yl]-(4-methyl-1,4-diazepan-1-yl)methanone] | 320 nM
COc1ccc(-n2nc(C(=O)N3CCN4CCC3CC4)c3c2CCC3)cc1F [Compound 18, 1,4-diazabicyclo[3.2.2]nonan-4-yl-[1-(3-fluoro-4-methoxyphenyl)-1,4,5,6-tetrahydrocyclopenta[c]pyrazol-3-yl]methanone] | 0.9 nM
O=C(c1nn(-c2ccc(OC(F)F)cc2)c2c1COCC2)N1CCN2CCC1CC2 [Compound 5, 1,4-diazabicyclo[3.2.2]nonan-4-yl-[1-[4-(difluoromethoxy)phenyl]-1,4,6,7-tetrahydropyrano[4,3-c]pyrazol-3-yl]methanone] | 29 nM
COc1ccc(-n2nc(C(=O)N3CCN4CCC3CC4)c3c2CCOC3)cc1Cl [Compound 16, [1-(3-chloro-4-methoxyphenyl)-1,4,6,7-tetrahydropyrano[4,3-c]pyrazol-3-yl]-(1,4-diazabicyclo[3.2.2]nonan-4-yl)methanone] | 2.2 nM
COc1ccc(-n2nc(C(=O)N3CCCN(C)CC3)c3c2CCOC3)cc1F [Compound 15, [1-(3-fluoro-4-methoxyphenyl)-1,4,6,7-tetrahydropyrano[4,3-c]pyrazol-3-yl]-(4-methyl-1,4-diazepan-1-yl)methanone] | 730 nM
COc1ccc(-n2nc(C(=O)N3CCN4CCC3CC4)c3c2CCC3)cc1C(F)(F)F [Compound 21, 1,4-diazabicyclo[3.2.2]nonan-4-yl-[1-[4-methoxy-3-(trifluoromethyl)phenyl]-1,4,5,6-tetrahydrocyclopenta[c]pyrazol-3-yl]methanone] | 0.1 nM
COc1ccc(-n2nc(C(=O)N3CCN4CCC3C4)c3c2CCOC3)cc1 (racemic) [Compound 10, Racemic-1,4-diazabicyclo[3.2.1]octan-4-yl-[1-(4-methoxyphenyl)-1,4,6,7-tetrahydropyrano[4,3-c]pyrazol-3-yl]methanone] | 180 nM
COc1ccc(-n2nc(C(=O)N3CCCN(C)CC3)c3c2CCOC3)cc1 [Compound 4, [1-(4-methoxyphenyl)-1,4,6,7-tetrahydropyrano[4,3-c]pyrazol-3-yl]-(4-methyl-1,4-diazepan-1-yl)methanone] | 940 nM
O=C(c1nn(-c2ccc(OC(F)F)c(Cl)c2)c2c1CCC2)N1CCN2CCC1CC2 [Compound 28, [1-[3-chloro-4-(difluoromethoxy)phenyl]-1,4,5,6-tetrahydrocyclopenta[c]pyrazol-3-yl]-(1,4-diazabicyclo[3.2.2]nonan-4-yl)methanone] | 1.3 nM
COc1ccc(-n2nc(C(=O)N3CCN4CCC3C(F)(F)C4)c3c2CCOC3)cc1 (single isomer, unassigned) [Compound 2, [(5˜{R or S})-6,6-difluoro-1,4-diazabicyclo[3.2.2]nonan-4-yl]-[1-(4-methoxyphenyl)-1,4,6,7-tetrahydropyrano[4,3-c]pyrazol-3-yl]methanone] | 7700 nM
COc1ccc(-n2nc(C(=O)N3CCNCC(F)C3)c3c2CCOC3)cc1 (racemic) [Compound 13, Racemic-(6-fluoro-1,4-diazepan-1-yl)-[1-(4-methoxyphenyl)-1,4,6,7-tetrahydropyrano[4,3-c]pyrazol-3-yl]methanone] | 2500 nM
COc1ccc(-n2nc(C(=O)N3CCCNCC3)c3c2CCOC3)cc1 [Compound 6, 1,4-diazepan-1-yl-[1-(4-methoxyphenyl)-1,4,6,7-tetrahydropyrano[4,3-c]pyrazol-3-yl]methanone] | 360 nM
COc1ccc(-n2nc(C(=O)N3CC[N@@]4CCC3C(F)(F)C4)c3c2CCC3)cc1C(F)(F)F (single isomer, unassigned) [Compound 23, [S or R]-(6,6-difluoro-1,4-diazabicyclo[3.2.2]nonan-4-yl)-[1-[4-methoxy-3-(trifluoromethyl)phenyl]-1,4,5,6-tetrahydrocyclopenta[c]pyrazol-3-yl]methanone] | 66 nM
COc1ccc(-n2nc(C(=O)N3CCNCC4(CC4)C3)c3c2CCOC3)cc1 [Compound 8, 5,8-diazaspiro[2.6]nonan-8-yl-[1-(4-methoxyphenyl)-1,4,6,7-tetrahydropyrano[4,3-c]pyrazol-3-yl]methanone] | 1200 nM
COc1ccc(-n2nc(C(=O)N3CCN4CCC3C(F)(F)C4)c3c2CCC3)cc1C(F)(F)F (single isomer, unassigned) [Compound 22, [R or S]-(6,6-difluoro-1,4-diazabicyclo[3.2.2]nonan-4-yl)-[1-[4-methoxy-3-(trifluoromethyl)phenyl]-1,4,5,6-tetrahydrocyclopenta[c]pyrazol-3-yl]methanone] | 16 nM
COc1ccc(-n2nc(C(=O)N3CCN4CCC3CC4)c3c2CCC3)cc1C [Compound 20, 1,4-diazabicyclo[3.2.2]nonan-4-yl-[1-(4-methoxy-3-methylphenyl)-1,4,5,6-tetrahydrocyclopenta[c]pyrazol-3-yl]methanone] | 0.4 nM
COc1ccc(-n2nc(C(=O)N3CCN4CCC3CC4)c3c2CCC3)cc1 [Compound 17, 1,4-diazabicyclo[3.2.2]nonan-4-yl-[1-(4-methoxyphenyl)-1,4,5,6-tetrahydrocyclopenta[c]pyrazol-3-yl]methanone] | 1.7 nM
COc1ccc(-n2nc(C(=O)N3CCC4CCC(C3)N4)c3c2CCOC3)cc1 (racemic) [Compound 12, Racemic-3,9-diazabicyclo[4.2.1]nonan-3-yl-[1-(4-methoxyphenyl)-1,4,6,7-tetrahydropyrano[4,3-c]pyrazol-3-yl]methanone] | 840 nM
O=C(c1nn(-c2ccc(F)c(Cl)c2)c2c1CCC2)N1CCN2CCC1CC2 [Compound 25, [1-(3-chloro-4-fluorophenyl)-1,4,5,6-tetrahydrocyclopenta[c]pyrazol-3-yl]-(1,4-diazabicyclo[3.2.2]nonan-4-yl)methanone] | 1.3 nM
O=C(c1nn(-c2cccc(Cl)c2)c2c1CCC2)N1CCN2CCC1CC2 [Compound 26, [1-(3-chlorophenyl)-1,4,5,6-tetrahydrocyclopenta[c]pyrazol-3-yl]-(1,4-diazabicyclo[3.2.2]nonan-4-yl)methanone] | 1.5 nM
O=C(c1nn(-c2ccc(Cl)c(Cl)c2)c2c1CCC2)N1CCN2CCC1CC2 [Compound 24, 1,4-diazabicyclo[3.2.2]nonan-4-yl-[1-(3,4-dichlorophenyl)-1,4,5,6-tetrahydrocyclopenta[c]pyrazol-3-yl]methanone] | 0.1 nM
COc1ccc(-n2nc(C(=O)N3CCN4CCC3CC4)c3c2CCC3)cc1Cl [Compound 19, [1-(3-chloro-4-methoxyphenyl)-1,4,5,6-tetrahydrocyclopenta[c]pyrazol-3-yl]-(1,4-diazabicyclo[3.2.2]nonan-4-yl)methanone] | 0.3 nM
Cc1ccc(-n2nc(C(=O)N3CCN4CCC3CC4)c3c2CCC3)cc1Cl [Compound 27, [1-(3-chloro-4-methylphenyl)-1,4,5,6-tetrahydrocyclopenta[c]pyrazol-3-yl]-(1,4-diazabicyclo[3.2.2]nonan-4-yl)methanone] | 0.3 nM
COc1ccc(-n2nc(C(=O)N3CCN4CCC3C(F)(F)C4)c3c2CCOC3)cc1 (single isomer, unassigned) [Compound 3, [(5˜{S or R})-6,6-difluoro-1,4-diazabicyclo[3.2.2]nonan-4-yl]-[1-(4-methoxyphenyl)-1,4,6,7-tetrahydropyrano[4,3-c]pyrazol-3-yl]methanone] | 1400 nM
COc1ccc(-n2nc(C(=O)N3CCCNCC3C)c3c2CCOC3)cc1 (racemic) [Compound 7, Racemic-[1-(4-methoxyphenyl)-1,4,6,7-tetrahydropyrano[4,3-c]pyrazol-3-yl]-(2-methyl-1,4-diazepan-1-yl)methanone] | 250 nM
